Tested on: CD1 female mouse brain lipidome
Assay: Brain-region lipid levels (HPLC/MS/MS lipidomics) 2 h after single i.p. 3 mg/kg CP 55,940 vs vehicle
Format: in vivo
Details: brainstem
Procedure: The Bloomington Institutional Animal Care and Use Committee of Indiana University reviewed and approved the animal procedures. Female mice from the CD1 strain were utilized to match our study examining THC’s effects on the brain lipidome ([Leishman et al., 2018]). Mice were given a single i.p. injection of either 3 mg/kg CP or 1:1:18 cremophor:ethanol:saline vehicle (please refer to the section “3 mg/kg CP Is Relevant for Synthetic Cannabinoid Abuse and Has Stronger Effects on the Female Mouse Brain Lipidome During Adolescence” for a justification of dose and use of female mice). Three different age groups were given injections: PND 35 and PND 50 adolescents, and adult mice (PND 113). At least eight mice in each age group received CP and at least eight received vehicle. Matching the THC study time course ([Leishman et al., 2018]), mice were sacrificed via rapid decapitation 2 h after injection. Brains were immediately removed and flash-frozen in liquid nitrogen, and then stored at -80°C until dissections were performed. Brains were dissected on an ice-cold dissection plate into the following regions: STR, HIPP, CER, THAL, CTX, HYP, MID, and STEM. These abbreviations for these brain areas will be used exclusively when discussing the results generated by these specific dissections. Each dissected area was immediately placed in liquid nitrogen and then stored at -80°C until used for lipid extraction.
Tissue extracts were performed as previously described ([Bradshaw et al., 2006]; [Stuart et al., 2013]; [Raboune et al., 2014]; [Leishman et al., 2016a],[b], [2017], [2018]). First, samples were shock frozen in liquid nitrogen, weighed, and transferred to a centrifuge tube. The mass of the largest sample was multiplied by 50 to determine how many milliliters of HPLC-grade methanol (Fisher, Fair Lawn, NJ, United States) to add. Then, samples were spiked with 500 pmol deuterium-labeled NAGly (d8NAGly; Cayman Chemical, Ann Arbor, MI, United States). Samples were placed on ice in darkness for 2 h then individually homogenized and centrifuged at 19,000 × g for 20 min at 20°C. Supernatants were diluted with HPLC water (purified in house) to make a solution of 75% water, 25% supernatant. Lipids were partially purified on C18 solid phase extraction columns (Agilent, Palo Alto, CA, United States). A series of four elutions with 1.5 mL of 60%, 75%, 85%, and 100% methanol were collected ([Stuart et al., 2013]; [Leishman et al., 2016a],[b], [2018]).
As previously described ([Bradshaw et al., 2006]; [Tan et al., 2006]; [Smoum et al., 2010]; [Stuart et al., 2013]; [Tortoriello et al., 2013]; [Raboune et al., 2014]; [Leishman et al., 2016a],[b], [2017], [2018]), samples were analyzed using an Applied Biosystems API 3000 triple quadrupole mass spectrometer with electrospray ionization (Foster City, CA, United States). Using an Agilent XDB-C18 reversed phase analytical column and optimized mobile phase gradients, 20 μL from each elution were chromatographed. Two Shimadzu 10ADvp pumps (Columbia, MD, United States) provided the pressure for gradient elution. Mobile phase A: 20% methanol, 80% water (v/v) and 1 mM ammonium acetate (Sigma, St. Louis, MO, United States). Mobile phase B: 100% methanol, 1 mM ammonium acetate. Every method run began with 0% mobile phase B, reached 100% mobile phase B flowing at 0.2 mL/min, and gradually returned to 0% mobile phase B.
This screening library will be referred to as the lipidome when discussing data from this study. HPLC/MS/MS data were analyzed using Analyst software (Applied Biosystems) ([Bradshaw et al., 2006]; [Tan et al., 2006]; [Stuart et al., 2013]; [Tortoriello et al., 2013]; [Raboune et al., 2014]; [Leishman et al., 2016a],[b], [2017], [2018]). Chromatograms (Supplementary Figure 3) were generated by determining the retention time of analytes from the analytical column with a [M-1] or [M+1] parent peak and a fragmentation peak corresponding to the programmed values. […]

[1] = PND 50, 3 mg/kg CP 55,940, one-way ANOVA p .000
[2] = PND 50, 3 mg/kg CP 55,940, one-way ANOVA p .001
[3] = PND 50, 3 mg/kg CP 55,940, one-way ANOVA p .002
[4] = PND 50, 3 mg/kg CP 55,940, one-way ANOVA p .003
[5] = PND 50, 3 mg/kg CP 55,940, one-way ANOVA p .006
[6] = PND 50, 3 mg/kg CP 55,940, one-way ANOVA p .007
[7] = PND 50, 3 mg/kg CP 55,940, one-way ANOVA p .008
[8] = PND 50, 3 mg/kg CP 55,940, one-way ANOVA p .014
[9] = PND 50, 3 mg/kg CP 55,940, one-way ANOVA p .015
[10] = PND 50, 3 mg/kg CP 55,940, one-way ANOVA p .018
[11] = PND 50, 3 mg/kg CP 55,940, one-way ANOVA p .023
[12] = PND 50, 3 mg/kg CP 55,940, one-way ANOVA p .041
[13] = PND 50, 3 mg/kg CP 55,940, one-way ANOVA p .043

In the case of `CCCCCCC(C)(C)c1ccc([C@@H]2C[C@H](O)CC[C@H]2CCCO)c(O)c1` [CP 55,940], the “N-palmitoyl methionine level, Mean” value (PND 50, 3 mg/kg CP 55,940) is reported as 7.37E-13, the “N-palmitoyl phenylalanine level, Mean” value (PND 50, 3 mg/kg CP 55,940) is reported as 1.09E-12 and the “N-palmitoyl proline level, Mean” value (PND 50, 3 mg/kg CP 55,940) is reported as “BDL”. For the same compound, the “N-palmitoyl serine level, Mean” value (PND 50, 3 mg/kg CP 55,940) was 2E-11, the “N-palmitoyl tryptophan level, Mean” value (PND 50, 3 mg/kg CP 55,940) was “BDL” and the “N-palmitoyl tyrosine level, Mean” value (PND 50, 3 mg/kg CP 55,940) was 5.77E-13. The “N-palmitoyl valine level, Mean” value (PND 50, 3 mg/kg CP 55,940) was 1.73E-13, the “N-stearoyl GABA level, Mean” value (PND 50, 3 mg/kg CP 55,940) was 7.1E-12 and the “N-stearoyl alanine level, Mean” value (PND 50, 3 mg/kg CP 55,940) was 1.5E-12. For the same compound, the “N-stearoyl ethanolamine level, Mean” value (PND 50, 3 mg/kg CP 55,940) was 2.63E-11, the “N-stearoyl glycine level, Mean” value (PND 50, 3 mg/kg CP 55,940) was 4.43E-12 and the “N-stearoyl leucine level, Mean” value (PND 50, 3 mg/kg CP 55,940) was 7.24E-13. For the same compound, the “N-stearoyl methionine level, Mean” value (PND 50, 3 mg/kg CP 55,940) was 8.45E-13, the “N-stearoyl phenylalanine level, Mean” value (PND 50, 3 mg/kg CP 55,940) was 9.56E-13 and the “N-stearoyl proline level, Mean” value (PND 50, 3 mg/kg CP 55,940) was “BDL”. The “N-stearoyl serine level, Mean” value (PND 50, 3 mg/kg CP 55,940) was 3.14E-11, the “N-stearoyl tryptophan level, Mean” value (PND 50, 3 mg/kg CP 55,940) was “BDL” and the “N-stearoyl tyrosine level, Mean” value (PND 50, 3 mg/kg CP 55,940) was 7.69E-14. The “Oleic acid level, Mean” value (PND 50, 3 mg/kg CP 55,940) was 1.94E-10, the “PGE2 level, Mean” value (PND 50, 3 mg/kg CP 55,940) was 1.11E-10 and the “PhosphoLEA level, Mean” value (PND 50, 3 mg/kg CP 55,940) was 7.34E-13. For the same compound, the “THC level, Mean” value (PND 50, 3 mg/kg CP 55,940) was “BDL”, the “N-arachidonoyl GABA Direction (relative to Veh)” value [1] was “↓” and the “N-arachidonoyl GABA Magnitude (x Veh level)” value [1] was 0.68 x Veh level. The “PGF2α Direction (relative to Veh)” value [1] was “↓”, the “PGF2α Magnitude (x Veh level)” value [1] was 0.74 x Veh level and the “N-palmitoyl leucine, Direction (relative to Veh)” value [2] was “↑”. For the same compound, the “N-palmitoyl leucine, Magnitude (x Veh level)” value [2] was 1.44 x Veh level, the “6-ketoPGF1α Direction (relative to Veh)” value [3] was “↓” and the “6-ketoPGF1α Magnitude (x Veh level)” value [3] was 0.70 x Veh level. The “N-arachidonoyl taurine Direction (relative to Veh)” value [4] was “↓”, the “N-arachidonoyl taurine Magnitude (x Veh level)” value [4] was 0.83 x Veh level and the “N-palmitoyl tyrosine Magnitude (x Veh level)” value [5] was 1.23 x Veh level. The “N-palmitoyl tyrosine, Direction (relative to Veh)” value [5] was “↑”, the “N-arachidonoyl tyrosine, Direction (relative to Veh)” value [6] was “↓” and the “N-arachidonoyl tyrosine, Magnitude (x Veh level)” value [6] was 0.74 x Veh level. The “N-arachidonoyl serine Direction (relative to Veh)” value [7] was “↓”, the “N-arachidonoyl serine Magnitude (x Veh level)” value [7] was 0.80 x Veh level and the “PGE2 Direction (relative to Veh)” value [8] was “↓”. The “PGE2 Magnitude (x Veh level)” value [8] was 0.73 x Veh level, the “2-linoleoyl glycerol Direction (relative to Veh)” value [9] was “↓” and the “2-linoleoyl glycerol Magnitude (x Veh level)” value [9] was 0.74 x Veh level. The “Oleic acid, Direction (relative to Veh)” value [10] was “↓”, the “Oleic acid, Magnitude (x Veh level)” value [10] was 0.84 x Veh level and the “N-arachidonoyl phenylalanine, Direction (relative to Veh)” value [11] was “↑”. For the same compound, the “N-arachidonoyl phenylalanine, Magnitude (x Veh level)” value [11] was 1.40 x Veh level, the “N-oleoyl methionine, Direction (relative to Veh)” value [12] was “↓” and the “N-oleoyl methionine, Magnitude (x Veh level)” value [12] was 0.68 x Veh level. For the same compound, the “Linoleic acid, Direction (relative to Veh)” value [13] was “↓”, the “Linoleic acid, Magnitude (x Veh level)” value [13] was 0.81 x Veh level and the “2-oleoyl glycerol, Direction (relative to Veh)” value (PND 50, 3 mg/kg CP 55,940, one-way ANOVA p .046) was “↓”.
